In ChEMBL document CHEMBL2203037, “Synthesis and Anti-influenza A Virus Activity of 2,2-Dialkylamantadines and Related Compounds” (ACS Med Chem Lett, 2012):
Active and inactive are the calls of the source. The rule behind the calls is not given here.

Experiments:
[1] = Cytotoxicity against dog MDCK cells assessed as cell morphology alterations; type: cell-based, Canis lupus familiaris
Influenza A virus [2] = test: Antiviral activity against Influenza A virus (A/X-31(H3N2)) infected in MDCK cells assessed as virus-induced cytopathic effect measured 3 days post infection by microscopic analysis; type: functional, organism-based
Influenza A virus [3] = test: Antiviral activity against Influenza A virus (A/Ishikawa/7/82 (H3N2)) infected in MDCK cells assessed as virus-induced cytopathic effect measured 3 days post infection by microscopic analysis; type: functional, organism-based
Influenza A virus [4] = test: Antiviral activity against amantadine-sensitive Influenza A virus (A/FM/1/47 (H1N1)) infected in MDCK cells assessed as virus-induced cytopathic effect measured 3 days post infection by microscopic analysis; type: functional, organism-based; conditions: A/Fort Monmouth/1/1947(H1N1), 72 h
Influenza A virus [5] = test: Antiviral activity against amantadine-sensitive Influenza A virus (A/Ned/378/05 (H1N1)) infected in MDCK cells assessed as virus-induced cytopathic effect measured 3 days post infection by microscopic analysis; type: functional, organism-based; conditions: 72 h
H3N2 subtype [6] = test: Antiviral activity against Influenza A virus (A/HK/7/87 (H3N2)) infected in MDCK cells assessed as virus-induced cytopathic effect measured 3 days post infection by microscopic analysis; type: functional, organism-based; conditions: A/Hong Kong/7/1987(H3N2), 72 h
[7] = Cytotoxicity against dog MDCK cells assessed as cell viability after 72 hrs by MTS assay; type: cell-based, Canis lupus familiaris
[8] = system: Mammalian orthoreovirus 1; test: Antiviral activity against Reovirus-1 by cell based assay; type: functional, organism-based
Coxsackievirus B4 = test: Antiviral activity against Coxsackievirus B4 by cell based assay; type: functional, organism-based
Punta Toro virus = test: Antiviral activity against Punta Toro virus by cell based assay; type: functional, organism-based
Sindbis virus = test: Antiviral activity against Sindbis virus by cell based assay; type: functional, organism-based
[9] = system: Vesicular stomatitis virus; test: Antiviral activity against Vesicular stomatitis virus by cell based assay; type: functional, organism-based
Human respirovirus 3 = test: Antiviral activity against Parainfluenza-3 virus by cell based assay; type: functional, organism-based
[10] = system: Respiratory syncytial virus; test: Antiviral activity against Respiratory syncytial virus by cell based assay; type: functional, organism-based
Feline coronavirus = test: Antiviral activity against Feline coronavirus by cell based assay; type: functional, organism-based
Vaccinia virus = test: Antiviral activity against Vaccinia virus by cell based assay; type: functional, organism-based; conditions: Orthopoxvirus vaccinia
Simplexvirus = test: Antiviral activity against Herpes simplex virus by cell based assay; type: functional, organism-based
H3N2 subtype [11] = test: Antiviral activity against Influenza A virus (A/HK/7/87 (H3N2)) infected in MDCK cells assessed as virus-induced cytopathic effect by MTS assay; type: functional, organism-based, A/Hong Kong/7/1987(H3N2)
[12] = Influenza A virus, A/Ishikawa/7/82 (H3N2), MDCK, 72 h
[13] = Influenza A virus, A/Hong Kong/7/1987(H3N2), MDCK

Row | Compound | MCC [1] | EC50 (Influenza A virus [4]) | EC50 (H3N2 subtype [6]) | CC50 at 72 h [7] | Activity [8] | Activity (Coxsackievirus B4) | Activity (Punta Toro virus) | Activity (Sindbis virus) | Activity [9] | Activity (Human respirovirus 3) | Activity [10] | Activity (Feline coronavirus) | Activity (Vaccinia virus) | Activity (Simplexvirus) | EC50 (H3N2 subtype [11]; [13]) | also measured
1 | CC(=O)N[C@H]1[C@H]([C@H](O)[C@H](O)CO)OC(C(=O)O)=C[C@@H]1NC(=N)N [ZANAMIVIR] | > 200 µM | 5 µM | 1.2 µM | – | – | – | – | – | – | – | – | – | – | – | – | EC50 (Influenza A virus [2]; mdck): 0.16 µM; EC50 (Influenza A virus [3]; [12]): 8.7 µM; EC50 (Influenza A virus [5]): 1.7 µM
2 | NC12CC3CC(CC(C3)C1)C2 [AMANTADINE] | 500 µM | 5.1 µM | 3.4 µM | > 100 µM | – | – | – | – | – | – | – | – | – | – | – | EC50 (Influenza A virus [2]; mdck): 61 µM; EC50 (Influenza A virus [3]; [12]): 11 µM
3 | CC(C)C1C2CC3CC(C2)CC1(N)C3 (configuration not stated) | 5.3 µM | – | > 100 µM | 8.6 µM | inactive | inactive | inactive | inactive | inactive | inactive | inactive | inactive | inactive | inactive | > 100 µM | –
4 | CC(N)C12CC3CC(CC(C3)C1)C2 (configuration not stated) [RIMANTADINE] | ≥ 100 µM | 1.9 µM | 0.17 µM | > 100 µM | – | – | – | – | – | – | – | – | – | – | – | EC50 (Influenza A virus [2]; mdck): 7 µM; EC50 (Influenza A virus [3]; [12]): 0.45 µM; EC50 (Influenza A virus [5]): 0.5 µM
5 | CCCC1(CCC)C2CC3CC(C2)CC1(N)C3 | 6 µM | – | > 100 µM | 2.9 µM | inactive | inactive | inactive | inactive | inactive | inactive | inactive | inactive | inactive | inactive | > 100 µM | –
6 | NC(=O)c1ncn([C@@H]2O[C@H](CO)[C@@H](O)[C@H]2O)n1 [RIBAVIRIN] | ≥ 100 µM | 10 µM | 7.7 µM | ≥ 20 µM | – | – | – | – | – | – | – | – | – | – | 7 µM | EC50 (Influenza A virus [2]; mdck): 8.8 µM; EC50 (Influenza A virus [3]; mdck): 8.8 µM; EC50 (Influenza A virus [5]): 7.6 µM
7 | CC1(C)C2CC3CC(C2)CC1(NCc1ccccc1)C3 | 4 µM | – | > 100 µM | 1.1 µM | inactive | inactive | inactive | inactive | inactive | inactive | inactive | inactive | inactive | inactive | > 100 µM | –
8 | CCNC12CC3CC(CC(C3)C1(C)C)C2 | 200 µM | – | > 100 µM | 85 µM | inactive | inactive | inactive | inactive | inactive | inactive | inactive | inactive | inactive | inactive | > 100 µM | –
9 | CCCC1(CCC)C2CC3CC(C2)CC1(N(C)C)C3 | ≥ 100 µM | – | > 100 µM | > 100 µM | inactive | inactive | inactive | inactive | inactive | inactive | inactive | inactive | inactive | inactive | > 100 µM | –
10 | CN(C)C12CC3CC(CC(C3)C1(C)C)C2 | 110 µM | – | > 100 µM | 68 µM | inactive | inactive | inactive | inactive | inactive | inactive | inactive | inactive | inactive | inactive | > 100 µM | –
11 | CCC1(CC)C2CC3CC(C2)CC1(N(C)C)C3 | ≥ 100 µM | 43 µM | > 100 µM | > 100 µM | inactive | inactive | inactive | inactive | inactive | inactive | inactive | inactive | inactive | inactive | – | EC50 (Influenza A virus [2]; Influenza A virus, MDCK, 72 h): > 100 µM; EC50 (Influenza A virus [3]; [12]): > 100 µM; EC50 (Influenza A virus [5]): 23 µM; EC50 (H3N2 subtype [11]; mdck): > 100 µM
12 | NC12CC3CC(CC(C3)C13CCCCC3)C2 | 6 µM | – | > 100 µM | 4.7 µM | inactive | inactive | inactive | inactive | inactive | inactive | inactive | inactive | inactive | inactive | > 100 µM | –
13 | CC12CC3CC1(C)CC(N)(C2)C3(C)C | ≥ 100 µM | – | > 100 µM | > 100 µM | inactive | inactive | inactive | inactive | inactive | inactive | inactive | inactive | inactive | inactive | > 100 µM | –
14 | CN(C)C12CC3(C)CC(CC3(C)C1)C2(C)C | ≥ 100 µM | – | > 100 µM | > 100 µM | inactive | inactive | inactive | inactive | inactive | inactive | inactive | inactive | inactive | inactive | > 100 µM | –
15 | CN(Cc1ccccc1)C12CC3CC(CC(C3)C1(C)C)C2 | 4 µM | – | > 100 µM | 0.7 µM | inactive | inactive | inactive | inactive | inactive | inactive | inactive | inactive | inactive | inactive | > 100 µM | –
16 | CCOC(=O)C1=C[C@@H](OC(CC)CC)[C@H](NC(C)=O)[C@@H](N)C1 [OSELTAMIVIR] | > 100 µM | 16 µM | 29 µM | – | – | – | – | – | – | – | – | – | – | – | – | EC50 (Influenza A virus [2]; Influenza A virus, MDCK, 72 h): 0.11 µM; EC50 (Influenza A virus [3]; [12]): 3 µM; EC50 (Influenza A virus [5]): 1.5 µM
17 | CC1(C)C2CC3CC(C2)CC1(N)C3 | 167 µM | – | > 100 µM | 77 µM | inactive | inactive | inactive | inactive | inactive | inactive | inactive | inactive | inactive | inactive | > 100 µM | –
18 | CC1(C)C2CC3CC(C2)CC1(N1CCCCC1)C3 | 4 µM | – | > 100 µM | 0.8 µM | inactive | inactive | inactive | inactive | inactive | inactive | inactive | inactive | inactive | inactive | > 100 µM | –
19 | CC(C)C1C2CC3CC(C2)CC1(N(C)C)C3 (configuration not stated) | > 100 µM | – | > 100 µM | ≥ 100 µM | inactive | inactive | inactive | inactive | inactive | inactive | inactive | inactive | inactive | inactive | > 100 µM | –
20 | CNC12CC3CC(CC(C3)C1(C)C)C2 | 110 µM | – | > 100 µM | 70 µM | inactive | inactive | inactive | inactive | inactive | inactive | inactive | inactive | inactive | inactive | > 100 µM | –
